Structures can show the parent of a compound that is named as a salt. Where two headings read alike, the source gives them in different places.
Experiments:
[1] = biological target: 5-HT1Dβ (Homo sapiens, UniProt P28222); experiment: [3H]5-HT radioligand binding to the cloned 5-HT1Dβ receptor
[2] = biological target: T1, 5-HT1F receptor (Homo sapiens, UniProt P30939); experiment: [3H]5-HT radioligand binding to the cloned 5-HT1F receptor (membranes of transfected Ltk- cells)
T1 construct: expressed in transfected cells; host or cells: Ltk- cells (mouse fibroblasts)
T1 sequence (P30939 1-366): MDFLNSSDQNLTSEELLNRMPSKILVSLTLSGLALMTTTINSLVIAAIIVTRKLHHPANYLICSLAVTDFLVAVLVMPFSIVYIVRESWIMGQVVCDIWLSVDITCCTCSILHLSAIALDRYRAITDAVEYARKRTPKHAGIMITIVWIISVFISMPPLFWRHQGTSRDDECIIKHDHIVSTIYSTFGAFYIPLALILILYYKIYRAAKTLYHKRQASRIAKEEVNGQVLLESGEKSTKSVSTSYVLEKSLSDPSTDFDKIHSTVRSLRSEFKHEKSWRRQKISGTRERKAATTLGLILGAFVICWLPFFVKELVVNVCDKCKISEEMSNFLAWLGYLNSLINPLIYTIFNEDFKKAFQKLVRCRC
Description: Membrane Preparation: Membranes were prepared from transfected Ltk- cells which were grown to 100% confluency. The cells were washed twice with phosphate-buffered saline, scraped from the culture dishes into 5 mL of ice-cold phosphate-buffered saline, and centrifuged at 200 x g for 5 minutes at 4°C. The pellet was resuspended in 2.5 mL of ice-cold Tris buffer (20 mM Tris HCl, pH=7.4 at 23°C, 5 mM EDTA) and homogenized with a Wheaton tissue grinder. The lysate was subsequently centrifuged at 200 x g for 5 minutes at 4°C to pellet large fragments which were discarded. The supernatant was collected and centrifuged at 40,000 x g for 20 minutes at 4°C. The pellet resulting from this centrifugation was washed once in ice-cold Tris wash buffer and resuspended in a final buffer containing 50 mM Tris HCl and 0.5 mM EDTA, pH=7.4 at 23°C. Membrane preparations were kept on ice and utilized within two hours for the radioligand binding assays.
Saturation studies were conducted using [^3H]5-HT at 12 different concentrations ranging from 0.5 nM to 100 nM. […] The binding profile of drugs in competition experiments was accomplished using 10-12 concentrations of compound. Incubation times were 30 minutes for both saturation and displacement studies based upon initial investigations which determined equilibrium binding conditions. Nonspecific binding was defined in the presence of 10 µM 5-HT. Binding was initiated by the addition of 50 µL membrane homogenates (10-20 µg). The reaction was terminated by rapid filtration through presoaked (0.5% poylethyleneimine) filters using 48R Cell Brandel Harvester (Gaithersburg, MD). Subsequently, filters were washed for 5 seconds with ice cold buffer (50 mM Tris HCl, pH=7.4 at 4°C), dried and placed into vials containing 2.5 mL Readi-Safe (Beckman, Fullerton, CA) and radioactivity was measured using a Beckman LS 5000TA liquid scintillation counter. The efficiency of counting of [^3H]5-HT averaged between 45-50%. Binding data was analyzed by computer-assisted nonlinear regression analysis (Accufit and Accucomp, Lunden Software, Chagrin Falls, OH).

[3] = biological target: T2, 5-HT1Dα (Homo sapiens, UniProt P28221); experiment: [3H]5-HT radioligand binding to the cloned 5-HT1Dα receptor
T2 construct: expressed in transfected cells
T2 sequence (P28221 whole entry): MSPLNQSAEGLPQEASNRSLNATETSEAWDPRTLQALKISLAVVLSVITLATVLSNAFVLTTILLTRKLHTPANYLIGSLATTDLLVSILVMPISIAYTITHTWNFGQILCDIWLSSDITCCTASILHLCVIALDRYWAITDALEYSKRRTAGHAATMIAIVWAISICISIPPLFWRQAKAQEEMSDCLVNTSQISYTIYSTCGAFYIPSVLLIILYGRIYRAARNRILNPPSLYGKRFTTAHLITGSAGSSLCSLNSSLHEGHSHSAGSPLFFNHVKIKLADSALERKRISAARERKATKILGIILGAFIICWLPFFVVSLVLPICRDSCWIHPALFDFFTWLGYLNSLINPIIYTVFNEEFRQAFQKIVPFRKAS

[4] = biological target: T3, 5-HT1E (Homo sapiens, UniProt P28566); experiment: [3H]5-HT radioligand binding to the cloned 5-HT1E receptor
T3 construct: expressed in transfected cells
T3 sequence (P28566 whole entry): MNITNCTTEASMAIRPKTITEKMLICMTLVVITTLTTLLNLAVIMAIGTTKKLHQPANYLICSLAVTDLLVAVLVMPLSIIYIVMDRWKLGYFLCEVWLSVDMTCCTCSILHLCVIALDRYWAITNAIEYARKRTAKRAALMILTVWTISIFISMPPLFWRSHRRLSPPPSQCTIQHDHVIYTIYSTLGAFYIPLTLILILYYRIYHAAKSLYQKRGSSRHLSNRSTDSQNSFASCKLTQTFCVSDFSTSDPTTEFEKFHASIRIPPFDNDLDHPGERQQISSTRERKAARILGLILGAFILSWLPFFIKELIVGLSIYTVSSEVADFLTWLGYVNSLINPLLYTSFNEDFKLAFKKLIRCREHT

[5] = tested on: neuronal protein extravasation; experiment: Neuronal (dural) protein extravasation after electrical stimulation of the trigeminal ganglion; assay type: in vivo, Harlan Sprague-Dawley rats or guinea pigs; details: 10 minutes before trigeminal ganglion stimulation, ID50 approximated from dose-response curve, species of the table not stated (rats or guinea pigs)
Description: Harlan Sprague-Dawley rats (225-325 g) or guinea pigs from Charles River Laboratories (225-325 g) were anesthetized with sodium pentobarbital intraperitoneally (65 mg/kg or 45 mg/kg respectively) and placed in a stereotaxic frame (David Kopf Instruments) with the incisor bar set at -3.5 mm for rats or -4.0 mm for guinea pigs. Following a midline sagital scalp incision, two pairs of bilateral holes were drilled through the skull (6 mm posteriorly, 2.0 and 4.0 mm laterally in rats; 4 mm posteriorly and 3.2 and 5.2 mm laterally in guinea pigs, all coordinates referenced to bregma). Pairs of stainless steel stimulating electrodes (Rhodes Medical Systems, Inc.) were lowered through the holes in both hemispheres to a depth of 9 mm (rats) or 10.5 mm (guinea pigs) from dura.
The femoral vein was exposed and a dose of the test compound was injected intravenously (1 mL/kg). Approximately 7 minutes later, a 50 mg/kg dose of Evans Blue, a fluorescent dye, was also injected intravenously. The Evans Blue complexed with proteins in the blood and functioned as a marker for protein extravasation. […]
A fluorescence microscope (Zeiss) equipped with a grating monochromator and a spectrophotometer was used to quantify the amount of Evans Blue dye in each sample. An excitation wavelength of approximately 535 nm was utilized and the emission intensity at 600 nm was determined. […] This facilitated the computer-controlled movement of the stage with fluorescence measurements at 25 points (500 µm steps) on each dural sample. The mean and standard deviation of the measurements was determined by the computer.
The extravasation induced by the electrical stimulation of the trigeminal ganglion was an ipsilateral effect (i.e. occurs only on the side of the dura in which the trigeminal ganglion was stimulated). […] The ratio of the amount of extravasation in the dura from the stimulated side compared to the unstimulated side dura was calculated. […]

[6] = cloned receptor, [3H]5-HT displacement, 37°C

Sequence of 5-HT1Dβ (P28222 whole entry): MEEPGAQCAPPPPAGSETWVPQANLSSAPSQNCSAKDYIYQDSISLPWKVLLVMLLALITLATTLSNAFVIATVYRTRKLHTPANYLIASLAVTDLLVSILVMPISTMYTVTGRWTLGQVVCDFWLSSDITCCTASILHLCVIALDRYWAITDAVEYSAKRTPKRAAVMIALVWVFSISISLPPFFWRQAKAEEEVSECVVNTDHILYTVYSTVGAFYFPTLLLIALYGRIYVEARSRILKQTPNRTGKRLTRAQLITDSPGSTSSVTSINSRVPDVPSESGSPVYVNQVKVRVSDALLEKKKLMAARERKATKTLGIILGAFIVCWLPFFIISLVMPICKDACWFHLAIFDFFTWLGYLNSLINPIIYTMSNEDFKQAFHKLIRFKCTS

For `Cn1cc(CCN2CCC(c3c[nH]c4ccc(F)cc34)CC2)cn1` [Compound II, 5-fluoro-3-<1-<2-<1-methyl-1H-pyrazol-4-yl>ethyl>-4-piperidinyl>-1H-indole hydrochloride], the Ki [1, 6] was 53.6 nM, the Ki [2, 6] was 2.5 nM and the Ki [3, 6] was 21.7 nM. For the same compound, the Ki [4, 6] was 50.3 nM and the “Inhibition of Protein Extravasation i.v. ID50” value (from here on “Inhibition”) [5] was 8.6e-10 mmol/kg.

Work on `CN(C)C1CCc2[nH]c3ccc(O)cc3c2C1` (stereo not shown) [Compound V, 6-hydroxy-3-dimethylamino-1,2,3,4-tetrahydrocarbazole] yielded a Ki [1] of 1680 nM, a Ki [2, 6] of 10.3 nM and a Ki [3] of 791 nM. For the same compound, the Ki [4, 6] was 73.6 nM and the “Inhibition” value [5] was 8.7e-09 mmol/kg.

Compound `O=C(O)C(=O)O.Oc1ccc2[nH]cc(C3CCNCC3)c2c1` [Compound III, 5-hydroxy-3-(4-piperidinyl)-1H-indole oxalate] has a Ki [1] of 196 nM, a Ki [2] of 22 nM and a Ki [3] of 163 nM. The Ki [4] was 3.9 nM and the “Inhibition” value [5] was 8.9e-09 mmol/kg.

For `CCN(CC)C1CCc2cccc(Cl)c2C1` (stereo not shown) [Compound IV, 8-chloro-2-diethylamino-1,2,3,4-tetrahydronaphthalene hydrochloride], the Ki [1] was 145 nM, the Ki [2] was 129 nM and the Ki [3] was 13.5 nM. For the same compound, the Ki [4] was 813 nM.
